Laboratory results reported in PMC9120017, “Inhibition mechanism of the chloride channel TMEM16A by the pore blocker 1PBC” (Nature Communications, 2022).
Like-named read-outs stand apart in the source and are kept apart here.

Target: T1, mouse TMEM16A mutant S517A (Mus musculus, UniProt Q8BHY3, S517A)
T1 construct: expressed in transfected cells; host or cells: HEK293T
T1 sequence (Q8BHY3 1-960 S517A): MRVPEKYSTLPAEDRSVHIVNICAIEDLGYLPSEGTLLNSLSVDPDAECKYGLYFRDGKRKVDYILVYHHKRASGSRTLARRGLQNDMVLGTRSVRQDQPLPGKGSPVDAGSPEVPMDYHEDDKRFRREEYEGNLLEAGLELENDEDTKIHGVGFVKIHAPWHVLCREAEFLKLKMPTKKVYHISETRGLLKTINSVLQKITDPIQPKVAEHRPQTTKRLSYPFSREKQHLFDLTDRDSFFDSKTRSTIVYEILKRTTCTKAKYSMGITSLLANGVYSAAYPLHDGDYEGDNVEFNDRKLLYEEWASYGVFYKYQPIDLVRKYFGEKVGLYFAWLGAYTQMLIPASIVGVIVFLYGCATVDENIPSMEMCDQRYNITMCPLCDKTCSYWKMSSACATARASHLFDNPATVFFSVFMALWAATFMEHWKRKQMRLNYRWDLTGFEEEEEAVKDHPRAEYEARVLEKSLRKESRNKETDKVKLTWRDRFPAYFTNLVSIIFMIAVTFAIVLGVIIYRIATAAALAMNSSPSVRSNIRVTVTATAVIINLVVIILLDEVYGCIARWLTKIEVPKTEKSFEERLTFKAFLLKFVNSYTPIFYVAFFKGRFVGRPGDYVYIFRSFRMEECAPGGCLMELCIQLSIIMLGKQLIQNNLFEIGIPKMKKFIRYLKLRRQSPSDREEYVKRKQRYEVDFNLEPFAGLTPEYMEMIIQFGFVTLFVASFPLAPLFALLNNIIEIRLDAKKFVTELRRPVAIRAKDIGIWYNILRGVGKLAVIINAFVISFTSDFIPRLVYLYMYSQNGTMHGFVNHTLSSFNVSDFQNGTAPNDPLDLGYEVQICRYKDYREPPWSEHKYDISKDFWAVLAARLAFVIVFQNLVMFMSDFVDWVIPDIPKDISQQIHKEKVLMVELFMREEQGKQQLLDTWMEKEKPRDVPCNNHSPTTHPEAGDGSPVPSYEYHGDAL
Test: Inside-out patch recording of 1PBC block, mutant S517A
Assay type: cell-based
Details: for remaining activity at 1 µM: 1PBC 1; for remaining activity at 1 µM / remaining activity at 3 µM / remaining activity at 10 µM / remaining activity at 30 µM / remaining activity at 100 µM: read-out: fraction of unblocked current; for remaining activity at 3 µM: 1PBC 3; for remaining activity at 10 µM: 1PBC 10; for remaining activity at 30 µM: 1PBC 30; for remaining activity at 100 µM: 1PBC 100
Experimental: HEK293T cells (ATCC CRL-1573) were maintained in Dulbecco’s modified Eagle’s medium (DMEM; Sigma-Aldrich) supplemented with 10 U ml^−1 penicillin, 0.1 mg ml^−1 streptomycin (Sigma-Aldrich), 2 mM L-glutamine (Sigma-Aldrich), and 10% FBS (Sigma-Aldrich) in a humidified atmosphere containing 5% CO2 at 37 °C. HEK293S GnTI^− cells (ATCC CRL-3022) were maintained in HyClone HyCell TransFx-H medium (GE Healthcare) supplemented with 10 U ml^−1 penicillin, 0.1 mg ml^−1 streptomycin, 4 mM L-glutamine, 0.15% poloxamer 188 (Sigma-Aldrich), and 1% FBS in an atmosphere containing 5% CO2 at 185 rpm at 37 °C. The ac splice variant of mouse TMEM16A (UniProt ID: Q8BHY3), mouse TMEM16B (UniProt ID: Q8CFW1), or mouse TMEM16F (UniProt ID: Q6P9J9) bearing a 3C cleavage site, a Venus YFP, a Myc tag, and a Streptavidin-binding peptide (SBP) downstream of the open reading frame in a modified pcDNA3.1 vector (Invitrogen) were used as described previously[21],[31]. Mutations were introduced using a modified QuikChange method[58] and were verified by sequencing.
HEK293T cells were transfected with 3–4 μg DNA per 6 cm Petri dish using the calcium phosphate co-precipitation method and were used within 24–96 h after transfection. Recordings were performed on inside-out patches excised from HEK293T cells expressing the construct of interest. Patch pipettes were pulled from borosilicate glass capillaries (O.D. 1.5 mm, I.D. 0.86 mm, Sutter Instrument) and were fire-polished with a microforge (Narishige) before use. Pipette resistance was typically 3–8 MΩ when filled with the recording solutions detailed below. Seal resistance was typically 4 GΩ or higher. Voltage-clamp recordings were made using Axopatch 200B, Digidata 1550, and Clampex 10.7 (Molecular Devices). Analog signals were filtered with the in-built 4-pole Bessel filter at 10 kHz and were digitized at 20 kHz. Solution exchange was achieved using a gravity-fed system through a theta glass pipette mounted on an ultra-fast piezo-driven stepper (Siskiyou). […] All recordings were performed at 20 °C.
A symmetrical ionic condition was used throughout. Stock solution with Ca^2+-EGTA contained 150 mM NaCl, 5.99 mM Ca(OH)2, 5 mM EGTA, and 10 mM HEPES at pH 7.40. Stock solution with EGTA contained 150 mM NaCl, 5 mM EGTA, and 10 mM HEPES at pH 7.40. Free Ca^2+ concentrations were adjusted by mixing the stock solutions at the required ratios calculated using the WEBMAXC program (http://web.stanford.edu/~cpatton/webmaxcS.htm). Patch pipettes were filled with the stock solution with Ca^2+-EGTA, which has a free Ca^2+ concentration of 1 mM. 1PBC (ChemBridge) stock was reconstituted in anhydrous DMSO (Sigma-Aldrich) at 100 mM and stored at −20 °C. Working solutions with 1PBC were prepared by serial dilution. Unless otherwise stated, experiments were performed at a saturating Ca^2+ concentration as shown in Supplementary Table 1 and the primary data were corrected for current rundown as described previously[21],[25].
Concentration-response relations, obtained from the ratio of the I-V plots before and after the application of the blocker, were fitted to the Hill equation,1 I/Imax=1/1+IC50/[blocker]^h where I/Imax is the normalized current responses, IC50 defines the concentration at which inhibition is at its half-maximum, and h is the Hill coefficient.

Work on `N#Cc1c(C(F)(F)F)cc(O)n2c1nc1ccccc12` [1PBC] yielded an IC50 (0 mV, 2 µM Ca2+) of 4.87 µM, a remaining activity at 1 µM (0 mV) of 80.6% and a remaining activity at 1 µM (20 mV) of 76.4%. It also gave a remaining activity at 1 µM (40 mV) of 72.2%, a remaining activity at 1 µM (60 mV) of 68.1% and a remaining activity at 1 µM (80 mV) of 65.8%. It also gave a remaining activity at 1 µM (100 mV) of 66.4%, a remaining activity at 1 µM (120 mV) of 68.4% and a remaining activity at 1 µM (140 mV) of 72%. The remaining activity at 1 µM (-20 mV) was 84.8%, the remaining activity at 1 µM (-40 mV) was 89.1% and the remaining activity at 1 µM (-60 mV) was 92.3%. The remaining activity at 1 µM (-80 mV) was 93.4%, the remaining activity at 1 µM (-100 mV) was 95% and the remaining activity at 1 µM (-120 mV) was 95.3%. The remaining activity at 1 µM (-140 mV) was 96.6%, the remaining activity at 3 µM (0 mV) was 62.1% and the remaining activity at 3 µM (20 mV) was 56.5%. For the same compound, the remaining activity at 3 µM (40 mV) was 50.9%, the remaining activity at 3 µM (60 mV) was 46.8% and the remaining activity at 3 µM (80 mV) was 43.5%. For the same compound, the remaining activity at 3 µM (100 mV) was 42.4%, the remaining activity at 3 µM (120 mV) was 44.1% and the remaining activity at 3 µM (140 mV) was 49.1%. It also gave a remaining activity at 3 µM (-20 mV) of 67.7%, a remaining activity at 3 µM (-40 mV) of 73.3% and a remaining activity at 3 µM (-60 mV) of 77.2%. For the same compound, the remaining activity at 3 µM (-80 mV) was 82.9%, the remaining activity at 3 µM (-100 mV) was 86.4% and the remaining activity at 3 µM (-120 mV) was 88.8%. The remaining activity at 3 µM (-140 mV) was 90.8%, the remaining activity at 10 µM (0 mV) was 33.3% and the remaining activity at 10 µM (20 mV) was 28.2%. For the same compound, the remaining activity at 10 µM (40 mV) was 24.2%, the remaining activity at 10 µM (60 mV) was 21.4% and the remaining activity at 10 µM (80 mV) was 19.4%. The remaining activity at 10 µM (100 mV) was 17.8%, the remaining activity at 10 µM (120 mV) was 18.2% and the remaining activity at 10 µM (140 mV) was 20.6%. The remaining activity at 10 µM (-20 mV) was 38.5%, the remaining activity at 10 µM (-40 mV) was 44.6% and the remaining activity at 10 µM (-60 mV) was 50%. The remaining activity at 10 µM (-80 mV) was 54.7%, the remaining activity at 10 µM (-100 mV) was 59.2% and the remaining activity at 10 µM (-120 mV) was 64.2%. For the same compound, the remaining activity at 10 µM (-140 mV) was 67.7%, the remaining activity at 30 µM (0 mV) was 14.7% and the remaining activity at 30 µM (20 mV) was 12%. For the same compound, the remaining activity at 30 µM (40 mV) was 10.1%, the remaining activity at 30 µM (60 mV) was 9.12% and the remaining activity at 30 µM (80 mV) was 8.68%. The remaining activity at 30 µM (100 mV) was 8.48%, the remaining activity at 30 µM (120 mV) was 8.95% and the remaining activity at 30 µM (140 mV) was 10.1%. It also gave a remaining activity at 30 µM (-20 mV) of 17.4%, a remaining activity at 30 µM (-40 mV) of 20.4% and a remaining activity at 30 µM (-60 mV) of 25.6%. It also gave a remaining activity at 30 µM (-80 mV) of 29.2%, a remaining activity at 30 µM (-100 mV) of 33.1% and a remaining activity at 30 µM (-120 mV) of 36.2%. For the same compound, the remaining activity at 30 µM (-140 mV) was 39.2%, the remaining activity at 100 µM (0 mV) was 6.16% and the remaining activity at 100 µM (20 mV) was 4.78%. The remaining activity at 100 µM (40 mV) was 4.43%, the remaining activity at 100 µM (60 mV) was 4.02% and the remaining activity at 100 µM (80 mV) was 3.86%. It also gave a remaining activity at 100 µM (100 mV) of 3.89%, a remaining activity at 100 µM (120 mV) of 3.95% and a remaining activity at 100 µM (140 mV) of 4.21%. The remaining activity at 100 µM (-20 mV) was 7.53%, the remaining activity at 100 µM (-40 mV) was 8.84% and the remaining activity at 100 µM (-60 mV) was 10.3%. It also gave a remaining activity at 100 µM (-80 mV) of 12.6%, a remaining activity at 100 µM (-100 mV) of 14.7% and a remaining activity at 100 µM (-120 mV) of 17.1%. The remaining activity at 100 µM (-140 mV) was 19.8%, the IC50 (20 mV, 2 µM Ca2+) was 3.78 µM and the IC50 (40 mV, 2 µM Ca2+) was 3.01 µM. For the same compound, the IC50 (60 mV, 2 µM Ca2+) was 2.51 µM, the “log-fold IC50 (change of mutant vs WT)” value (80 mV) was 0.0426 and the IC50 (80 mV, 2 µM Ca2+) was 2.2 µM. It also gave an IC50 (100 mV, 2 µM Ca2+) of 2.14 µM, an IC50 (120 mV, 2 µM Ca2+) of 2.29 µM and an IC50 (140 mV, 2 µM Ca2+) of 2.76 µM. For the same compound, the IC50 (-20 mV, 2 µM Ca2+) was 6.24 µM, the IC50 (-40 mV, 2 µM Ca2+) was 8.08 µM and the IC50 (-60 mV, 2 µM Ca2+) was 10.3 µM. For the same compound, the IC50 (-80 mV, 2 µM Ca2+) was 12.8 µM, the IC50 (-100 mV, 2 µM Ca2+) was 15.5 µM and the IC50 (-120 mV, 2 µM Ca2+) was 18.4 µM. The IC50 (-140 mV, 2 µM Ca2+) was 21.4 µM, the IC50 (S517A, V 0 mV) was 4.87 µM and the IC50 (S517A, V 20 mV) was 3.78 µM. It also gave an IC50 (S517A, V 40 mV) of 3.01 µM, an IC50 (S517A, V 60 mV) of 2.51 µM and an IC50 (S517A, V 80 mV) of 2.2 µM. The IC50 (S517A, V 100 mV) was 2.14 µM, the IC50 (S517A, V 120 mV) was 2.29 µM and the IC50 (S517A, V 140 mV) was 2.76 µM. For the same compound, the IC50 (S517A, V -20 mV) was 6.24 µM, the IC50 (S517A, V -40 mV) was 8.08 µM and the IC50 (S517A, V -60 mV) was 10.3 µM. The IC50 (S517A, V -80 mV) was 12.8 µM, the IC50 (S517A, V -100 mV) was 15.5 µM and the IC50 (S517A, V -120 mV) was 18.4 µM. The IC50 (S517A, V -140 mV) was 21.4 µM.
